Read-outs that look alike come from different tables or passages of the source.
Assay: CD69 Whole Blood Assay (CD69 Hu Blood FACS)
Assay type: cell-based, human
Details: Lymphocyte, human whole blood, anti-IgM activated B lymphocytes, FACS, IC70
Source text: A CD69 Whole Blood Assay can be conducted on Formula I compounds to determine the ability of compounds to inhibit the production of CD69 by B lymphocytes in human whole blood activated by crosslinking surface IgM with goat F(ab′)2 anti-human IgM (Example 907). CD69 is a type II C-type lectin involved in lymphocyte migration and cytokine secretion. CD69 expression represents one of the earliest available indicators of leukocyte activation and its rapid induction occurs through transcriptional activation (Vazquez et al (2009) Jour. of Immunology Published Oct. 19, 2009, doi:10.4049/jimmunol.0900839). Concentration-dependent inhibition of antigen receptor stimulation by selective Btk inhibitors induces cell surface expression of the lymphocyte activation marker CD69 (Honigberg et al (2010) Proc. Natl. Acad. Sci. 107(29):13075-13080). Thus, CD69 inhibition by selective Btk inhibitors may be correlated with therapeutic efficacy of certain B-cell disorders.

[1] = Table 2 (unit inferred), read-out: CD69 Hu Blood FACS (IC70)
[2] = Table 1, read-out: CD69 Hu Blood FACS IC70

Compound | IC70 [1] [nM] | IC70 [2] [nM]
C[C@H]1CN(C2COC2)CCN1c1ccc(Nc2cc(-c3ccnc(N4CCc5c(c(F)c6n5CCCC6)C4=O)c3CO)cn(C)c2=O)nc1 [Example 237, 10-fluoro-2-[3-(hydroxymethyl)-4-[1-methyl-5-[[5-[(2S)-2-methyl-4-(oxetan-3-yl)piperazin-1-yl]-2-pyridyl]amino]-6-oxo-3-pyridyl]-2-pyridyl]-3,4,6,7,8,9-hexahydropyrido[3,4-b]indolizin-1-one] | 46.1 | 
CN1CCn2nc(Nc3cc(-c4ccnc(N5CCn6c(cc7c6CCCC7)C5=O)c4CO)cn(C)c3=O)nc2C1 [Example 270, 2-[3-(hydroxymethyl)-4-[1-methyl-5-[(7-methyl-6,8-dihydro-5H-[1,2,4]triazolo[1,5-a]pyrazin-2-yl)amino]-6-oxo-3-pyridyl]-2-pyridyl]-3,4,6,7,8,9-hexahydropyrazino[1,2-a]indol-1-one] | 5900 | 
Cn1cc(-c2ccnc(N3CCn4c5c(c(F)c4C3=O)CCCC5)c2CO)nc(Nc2cccnc2)c1=O [Example 186, 10-fluoro-2-(3-(hydroxymethyl)-4-(4-methyl-5-oxo-6-(pyridin-3-ylamino)-4,5-dihydropyrazin-2-yl)pyridin-2-yl)-3,4,6,7,8,9-hexahydropyrazino[1,2-a]indol-1(2H)-one] |  | 1600
Cn1cc(-c2ccnc(N3CCn4c(cc5c4CCCC5)C3=O)c2CO)cc(Nc2ccc(N3CCNCC3)cn2)c1=O [Example 127, 2-(3-(Hydroxymethyl)-4-(1-methyl-6-oxo-5-(5-(piperazin-1-yl)pyridin-2-ylamino)-1,6-dihydropyridin-3-yl)pyridin-2-yl)-3,4,6,7,8,9-hexahydropyrazino[1,2-a]indol-1(2H)-one] |  | 141
Cn1cc(-c2ccnc(N3CCn4c(cc5c4CC(C)(C)C5)C3=O)c2CO)cc(Nc2ccc(N3CC(O)C3)cn2)c1=O [Example 314, 3-[4-[5-[[5-(3-hydroxyazetidin-1-yl)-2-pyridyl]amino]-1-methyl-6-oxo-3-pyridyl]-3-(hydroxymethyl)-2-pyridyl]-7,7-dimethyl-1,2,6,8-tetrahydrocyclopenta[3,4]pyrrolo[3,5-b]pyrazin-4-one] | 44.6 | 
Cn1cc(-c2cncc(N3CCc4c(sc5c4CC(C)(C)C5)C3=O)c2CO)cc(Nc2ccc(N3CCN(C4COC4)CC3)cn2)c1=O [Example 106] |  | 57.6
Cn1nc(-c2ccnc(N3CCc4c(sc5c4CC(C)(C)C5)C3=O)c2CO)cc(Nc2cc3n(n2)CC(C)(C)OC3)c1=O [Example 330, 3-[4-[5-[(6,6-dimethyl-4,7-dihydropyrazolo[5,1-c][1,4]oxazin-2-yl)amino]-1-methyl-6-oxo-pyridazin-3-yl]-3-(hydroxymethyl)-2-pyridyl]-7,7-dimethyl-1,2,6,8-tetrahydrocyclopenta[3,4]thieno[1,3-c]pyridin-4-one] | 235 | 
CN1CCc2nc(Nc3cc(-c4ccnc(-n5ncc6c7c(sc6c5=O)CCCC7)c4CO)cn(C)c3=O)sc2C1 [Example 216, 3-[3-(hydroxymethyl)-4-[1-methyl-5-[(5-methyl-6,7-dihydro-4H-thiazolo[5,4-c]pyridin-2-yl)amino]-6-oxo-3-pyridyl]-2-pyridyl]-6,7,8,9-tetrahydrobenzothiopheno[2,3-d]pyridazin-4-one] | 357 | 
CC1c2cc(Nc3cc(-c4ccnc(N5CCn6c(cc7c6CCCC7)C5=O)c4CO)cn(C)c3=O)nn2CCN1C (stereo not shown) [Example 287, 2-[4-[5-[(4,5-dimethyl-6,7-dihydro-4H-pyrazolo[1,5-a]pyrazin-2-yl)amino]-1-methyl-6-oxo-3-pyridyl]-3-(hydroxymethyl)-2-pyridyl]-3,4,6,7,8,9-hexahydropyrazino[1,2-a]indol-1-one] | 127 | 
C[C@H]1CN(C2COC2)CCN1c1cnc(Nc2cc(-c3ccnc(-n4ncc5c6c(sc5c4=O)CCCC6)c3CO)cn(C)c2=O)cn1 [Example 230, 3-[3-(hydroxymethyl)-4-[1-methyl-5-[[5-[(2S)-2-methyl-4-(oxetan-3-yl)piperazin-1-yl]pyrazin-2-yl]amino]-6-oxo-3-pyridyl]-2-pyridyl]-6,7,8,9-tetrahydrobenzothiopheno[2,3-d]pyridazin-4-one] | 179 | 
CN1Cc2cc(Nc3cc(-c4ccnc(N5CCc6c(sc7c6CC(C)(C)C7)C5=O)c4CO)cn(C)c3=O)nn2CC1=O [Example 317, 3-[3-(hydroxymethyl)-4-[1-methyl-5-[(5-methyl-6-oxo-4,7-dihydropyrazolo[1,5-a]pyrazin-2-yl)amino]-6-oxo-3-pyridyl]-2-pyridyl]-7,7-dimethyl-1,2,6,8-tetrahydrocyclopenta[3,4]thieno[1,3-c]pyridin-4-one] | 58.6 | 
CC(=O)N1CCn2nc(Nc3cc(-c4ccnc(N5CCn6c(cc7c6CC(C)(C)C7)C5=O)c4CO)cn(C)c3=O)cc2C1 [Example 212, 3-[4-[5-[(5-acetyl-6,7-dihydro-4H-pyrazolo[1,5-a]pyrazin-2-yl)amino]-1-methyl-6-oxo-3-pyridyl]-3-(hydroxymethyl)-2-pyridyl]-7,7-dimethyl-1,2,6,8-tetrahydrocyclopenta[3,4]pyrrolo[3,5-b]pyrazin-4-one] | 15.2 | 
C[C@@H]1COC[C@H](C)N1C(=O)c1ccc(Nc2cc(-c3ccnc(N4CCn5c(cc6c5CCCC6)C4=O)c3CO)cn(C)c2=O)nc1 [Example 322, 2-[4-[5-[[5-[(3S,5R)-3,5-dimethylmorpholine-4-carbonyl]-2-pyridyl]amino]-1-methyl-6-oxo-3-pyridyl]-3-(hydroxymethyl)-2-pyridyl]-3,4,6,7,8,9-hexahydropyrazino[1,2-a]indol-1-one] | 79.6 | 
Cn1cc(-c2ccnc(-n3ncc4c5c(sc4c3=O)CCCC5)c2CO)cc(Nc2ccccn2)c1=O [Example 178, 3-[3′-Hydroxymethyl-1-methyl-6-oxo-5-(pyridin-2-ylamino)-1,6-dihydro-[3,4′]bipyridinyl-2′-yl]-6,7,8,9-tetrahydro-3H-benzo[4,5]thieno[2,3-d]pyridazin-4-one] |  | 1100
Cn1cc(-c2cncc(N3CCc4c(cc5n4CCCC5)C3=O)c2CO)cc(Nc2ccc(N3CCN(C4COC4)CC3)cn2)c1=O [Example 112, 2-(4-(Hydroxymethyl)-5-(1-methyl-5-(5-(4-(oxetan-3-yl)piperazin-1-yl)pyridin-2-ylamino)-6-oxo-1,6-dihydropyridin-3-yl)pyridin-3-yl)-3,4,6,7,8,9-hexahydropyrido[3,4-b]indolizin-1(2H)-one] |  | 492
Cn1cc(-c2ccnc(N3CCn4c(cc5c4CCCC5)C3=O)c2CO)cc(Nc2cc3n(n2)CCNC3)c1=O [Example 205, 2-[3-(hydroxymethyl)-4-[1-methyl-6-oxo-5-(4,5,6,7-tetrahydropyrazolo[1,5-a]pyrazin-2-ylamino)-3-pyridyl]-2-pyridyl]-3,4,6,7,8,9-hexahydropyrazino[1,2-a]indol-1-one] | 114 | 
Cn1cc(-c2ccnc(N3CCn4c(cc5c4CCCC5)C3=O)c2CO)nc(Nc2ccc(N3CCN(C4COC4)CC3)nc2)c1=O [Example 197, 2-[3-(hydroxymethyl)-4-[4-methyl-6-[[6-[4-(oxetan-3-yl)piperazin-1-yl]-3-pyridyl]amino]-5-oxo-pyrazin-2-yl]-2-pyridyl]-3,4,6,7,8,9-hexahydropyrazino[1,2-a]indol-1-one] | 2300 | 
Cc1cc(Nc2cc(-c3ccnc(N4CCn5c(cc6c5CC(C)(C)C6)C4=O)c3CO)cn(C)c2=O)ncn1 [Example 180, 2-[3′-Hydroxymethyl-1-methyl-5-(6-methyl-pyrimidin-4-ylamino)-6-oxo-1,6-dihydro-[3,4′]bipyridinyl-2′-yl]-7,7-dimethyl-3,4,7,8-tetrahydro-2H,6H-cyclopenta[4,5]pyrrolo[1,2-a]pyrazin-1-one] |  | 245
Cc1cc(Nc2cc(-c3ccnc(-n4ncc5c6c(sc5c4=O)CC(C)(C)C6)c3CO)cn(C)c2=O)nn1C [Example 292, 3-[4-[5-[(1,5-dimethylpyrazol-3-yl)amino]-1-methyl-6-oxo-3-pyridyl]-3-(hydroxymethyl)-2-pyridyl]-7,7-dimethyl-6,8-dihydrocyclopenta[3,4]thieno[1,3-d]pyridazin-4-one] | 118 | 
Cn1nc(-c2ccnc(N3CCn4c5c(c(F)c4C3=O)CCCC5)c2CO)cc(Nc2ccncn2)c1=O [Example 263, 10-fluoro-2-[3-(hydroxymethyl)-4-[1-methyl-6-oxo-5-(pyrimidin-4-ylamino)pyridazin-3-yl]-2-pyridyl]-3,4,6,7,8,9-hexahydropyrazino[1,2-a]indol-1-one] | 2200 | 
CN1CCn2nc(Nc3cc(-c4ccnc(N5CCn6c(cc7c6CCCC7)C5=O)c4CO)cn(C)c3=O)cc2C1 [Example 113, 2-(3-(Hydroxymethyl)-4-(1-methyl-5-(5-methyl-4,5,6,7-tetrahydropyrazolo[1,5-a]pyrazin-2-ylamino)-6-oxo-1,6-dihydropyridin-3-yl)pyridin-2-yl)-3,4,6,7,8,9-hexahydropyrazino[1,2-a]indol-1(2H)-one] |  | 62.5
Cn1cc(-c2ccnc(N3CCn4c(cc5c4CC(C)(C)C5)C3=O)c2CO)cc(Nc2nc3c(s2)COCC3)c1=O [Example 214, 3-[4-[5-(6,7-dihydro-4H-pyrano[4,3-d]thiazol-2-ylamino)-1-methyl-6-oxo-3-pyridyl]-3-(hydroxymethyl)-2-pyridyl]-7,7-dimethyl-1,2,6,8-tetrahydrocyclopenta[3,4]pyrrolo[3,5-b]pyrazin-4-one] | 124 | 
